Where two headings read alike, the source gives them in different places.
Legend:
[1] = Voltammetric redox potentials and Rehm-Weller calculation of PeT energy; type: physicochemical
Excerpt: Embodiments of the present invention provide a probe (Q3NI) having fluorescence signal of a naphthalimide reporter quenched via oxidative electron transfer (OeT) by a covalently attached quinone propionic acid motif. See, e.g. FIG. 3A. The Q3NI provides the novel mechanism of reporter quenching by carefully tuning the electronic and optical properties of the quinone (Q3) OeT quencher and the naphthalimide reporter (NI), due to extant naphthalimide reporters that are quenched by reductive electron-transfer (ReT). The Rehm-Weller equation,
(§1) was used to examine possible quinone propionic acid quenchers and 1,8-naphthalimide reporters as well as linkers between the OeT quencher and the NI reporter, so as to ensure that quenching is thermodynamically feasible and efficient. In this equation, ED is the redox potential of the donor and EA that of the acceptor, ΔG00 is the energy of the first excited singlet state of the reporter, and e^2/εd is the Coulombic interaction energy of the ion pair, known to be 0.06 eV. The energy of the first excited singlet state of NI was measured to be 3.06 eV. […] The quinone was attached to the naphthalimide via an N-methylethanolamine linker through a carbamate to the amine of the naphthalimide ring. This linker imparts three properties on Q3NI: the linker is sufficiently short to allow for a high probability of electron transfer, the electron-withdrawing carbamate yields a favorable ΔGPeT, and the presence of the tertiary amide provides enhanced environmental stability. As a result, the fluorescence of Q3NI in pH 7.4, 0.1 M PBS is effectively quenched in comparison to that of the free NI reporter, as noted by their spectra in FIGS. 3B and 3C and respective fluorescence quantum yields Φ of 0.007 and 0.23 obtained using quinine sulfate as standard. […] The 33-fold fluorescence enhancement for NI versus Q3NI and very large Stokes shift of 116 nm (λmax abs=374 run, λmax em=490 nm) bode well for use of Q3NI as a multifunctional turn-on probe for sensing and imaging applications that utilize reductive stimuli capable of initiating removal of the reduced quinone group.

[2] = pKa of secondary amine of reporter; type: physicochemical
[3] = Fluorescence spectra and quantum yield in pH 7.4, 0.1 M PBS; type: physicochemical; conditions: for fluorescence quantum yield Φ: quinine sulfate as standard
Excerpt: as §1

fixed samples = assay: Reporter retention in paraformaldehyde-fixed cell samples; type: cell-based; conditions: paraformaldehyde fixing; fixed samples stored for 10 months in the laboratory ambient
Excerpt: (§2) There was no indication of reporter in the nucleus, pointing to the lack of NQOI there; this is in contrast to previous work using immunohistochemical staining of penneabilized, fixed cells. The average cytosolic signal was 9 times higher in A549 cells versus NQOI-negative H596 cells, while it was 23 times higher in HT-29 cells compared to the NQOI-negative H596 cells. […] Accumulation of the basic (secondary amine pKa ˜11) NI occurred in acidic late endosomal and lysosomal vesicles, a beneficial outcome that leads to enhanced intracellular retention of NI. […] Collectively, there is great potential for use of our probe/reporter system for ex vivo quantitative analysis of excised tumor cells and long-term in vivo and in vitro imaging.

A549 [4] = assay: Flow cytometry assay of Q3NI activation; type: cell-based, human; conditions: 10 min or 60 min incubation; λex=405 nm, λem=457/60 nm; 10,000 cells
Description: (§3) Flow cytometry assays were used to assess the applicability of the Q3NI probe to rapidly detect and quantify tumor cells containing hNQO1. See, FIG. 8. The probe was incubated in a suspension of HT-29, A549, H596, and H446 (a small-cell lung carcinoma known to be devoid of hNQO1 activity) cells for either 10 min or 60 min, and a flow cytometer was used to measure fluorescence (λex=405 nm, λem=457/60 nm) in 10,000 individual cells. […] Importantly, the sustained low fluorescence observed with the H446 cells (FIG. 8) points to the intracellular stability of Q3NI (lack of nonspecific activation).

H596 [5] = assay: Flow cytometry assay of Q3NI activation; type: cell-based, human; conditions: 10 min or 60 min incubation; λex=405 nm, λem=457/60 nm; 10,000 cells
Description: as §3

H446 [6] = assay: Flow cytometry assay of Q3NI activation; type: cell-based, human; conditions: 10 min or 60 min incubation; λex=405 nm, λem=457/60 nm; 10,000 cells
Description: as §3

HT-29 [7] = assay: Flow cytometry assay of Q3NI activation; type: cell-based, human; conditions: 10 min or 60 min incubation; λex=405 nm, λem=457/60 nm; 10,000 cells
Description: as §3

H596 [8] = assay: 2-photon microscopy of living cells; type: cell-based, human; conditions: 2.0×10^−5 M Q3NI in complete growth medium
Excerpt: (§4) Multiphoton (MP) microscopy imaging of cells and tissues may be more advantageous than traditional fluorescence microscopy, because use of the characteristic long-wavelength photons offers higher fluorophore and cellular photostability that provides extended imaging duration, less background signal from out-of-focus excitation and scattering events, and deeper penetration depth. In addition, MP imaging is ideal for direct observation of targets in their physiological environment and ex vivo thick-specimen sampling where 2D and 3D maps can be generated. […] As before, the signal appears somewhat heterogeneous throughout the cytosolic space of the HT-29 and A549 cells due to NI accumulation in acidic organelles. To ensure Q3NI and NI had little effect on cell health, cells were incubated in a 2.0×10^−5 M Q3NI solution in complete growth medium for 1 h and 1 day, and then cell viability was assessed with a trypan blue assay. After 1 h, cell viability for HT-29, A549, and H596 was 97.7%, 98.8%, and 100%, while it was 97.7%, 98.7%, and 98.4% after 24 h.

A549 cells [9] = assay: 2-photon microscopy of living cells; type: cell-based, human; conditions: 2.0×10^−5 M Q3NI in complete growth medium
Excerpt: as §4

HT-29 cell line = assay: 2-photon microscopy of living cells; type: cell-based, human; conditions: 2.0×10^−5 M Q3NI in complete growth medium
Excerpt: as §4

H446 [10] = assay: 2-photon microscopy of living cells; type: cell-based, human; conditions: 2.0×10^−5 M Q3NI in complete growth medium
Excerpt: as §4

A549 [11] = assay: Trypan blue cell viability assay; type: cell-based, human; conditions: 2.0×10^−5 M Q3NI
Excerpt: as §4

H596 [12] = assay: Trypan blue cell viability assay; type: cell-based, human; conditions: 2.0×10^−5 M Q3NI
Excerpt: as §4

HT-29 [13] = assay: Trypan blue cell viability assay; type: cell-based, human; conditions: 2.0×10^−5 M Q3NI
Excerpt: as §4

H596 cells = assay: Wide-field fluorescence imaging of fixed cells; type: cell-based, human; conditions: 10 min exposure
Excerpt: as §2

A549 cells [14] = assay: Wide-field fluorescence imaging of fixed cells; type: cell-based, human; conditions: 10 min exposure
Excerpt: as §2

HT-29 cells = assay: Wide-field fluorescence imaging of fixed cells; type: cell-based, human; conditions: 10 min exposure
Excerpt: as §2

A549 [15] = assay: Unaided-eye visualization of cultured cells with handheld 365 nm lamp; type: cell-based, human; conditions: 2×10^−5 M Q3NI, 10 min incubation; 5.72×10^6 total cells
Description: (§5) Embodiments of the present invention may allow for cancer cells to be rapidly visualized and differentiated. […] After a 10 min incubation period in a cell culture solution containing 2×10^−5 M Q3NI, it was possible to differentiate between the various substrate-cultured cells (4.84 cm^2) using only a handheld fluorescent lamp emitting at 365 nm and the unaided eye. […] The ability to visually determine the presence of hNQO1 in a small number of cells is due to the marked difference in fluorescence from the unquenched NI reporter (Φ=0.23) and quenched Q3NI probe (Φ=0.007) and the large Stokes shift of the NI reporter that results in fluorescence emission in the visible spectrum (400 nm to ˜600 nm). These outcomes point to use of the Q3NI probe sensor in the real-time, visible (without the aid of imaging equipment), and accurate determination of tumor/healthy tissue borders so as to allow for surgical resection of tumors with small foci.

H596 [16] = assay: as above; type: cell-based, human; conditions: 2×10^−5 M Q3NI, 10 min incubation; 3.96×10^6 total cells
Description: as §5

HT-29 [17] = assay: as above; type: cell-based, human; conditions: 2×10^−5 M Q3NI, 10 min incubation; 3.69×10^6 total cells
Description: as §5

[18] = biological target: human NAD(P)Rquinone oxidoreductase isozyme 1 (hNQO1) (Homo sapiens, UniProt P15559); assay: Michaelis-Menten kinetics of hNQO1 activation of the probe (NI reporter production); type: biochemical
human NAD(P)Rquinone oxidoreductase isozyme 1 (hNQO1), sequence (P15559 whole entry): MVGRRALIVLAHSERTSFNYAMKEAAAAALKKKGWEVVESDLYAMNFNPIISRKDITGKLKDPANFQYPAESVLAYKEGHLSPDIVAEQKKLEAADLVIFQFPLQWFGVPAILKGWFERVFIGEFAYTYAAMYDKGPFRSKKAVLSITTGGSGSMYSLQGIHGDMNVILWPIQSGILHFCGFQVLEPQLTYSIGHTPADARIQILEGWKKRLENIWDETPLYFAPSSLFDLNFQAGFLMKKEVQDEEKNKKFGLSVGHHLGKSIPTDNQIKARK
Excerpt: In embodiments of the present in invention hNQO 1 reduces fluorescent probes cloked with a quinone moiety. In embodiments of the present invention, Q3NI is a probe capable of activation by hNQO1 to yield the NI reporter at a significant rate. Apparent kinetic parameters of Q3NI were obtained from Michaelis-Menten kinetic treatment of the time-dependent NI reporter production, namely the Michaelis constant (Km), maximum velocity (Vmax), catalytic constant (kcat), and substrate specificity (kcat/Km). The high rate of NI reporter production under in vitro conditions is readily apparent in FIG. 7; after 5 min, a fluorescent signal has been attained that is 22% of the maximum achievable, yielding 2.2×10^−7 M of released reporter.

[19] = other dyes applied to cancer detection and localization; cited from earlier work

## CCCCN1C(=O)c2cccc3c(NC(=O)OCCNC)ccc(c23)C1=O [NI]
[1]
  energy of the first excited singlet state: 3.06 eV
[1]; voltammetric measurements
  ED, redox potential of the donor: 1.74 V
[2]
  secondary amine pKa: ~11
[3]; pH 7.4, 0.1 M PBS
  fluorescence enhancement for NI versus Q3NI: 33 fold
  fluorescence quantum yield Φ: 0.23
[3]; λmax abs=374, λmax em=490 nm
  Stokes shift: 116 nm
Fixed samples
  efflux of reporter from cells / fluorescence retention: no apparent efflux

## CCCCN1C(=O)c2cccc3c(NC(=O)OCCN(C)C(=O)CC(C)(C)C4=C(C)C(=O)C(C)=C(C)C4=O)ccc(c23)C1=O [Q3NI]
A549 [4]
  flow cytometry fluorescence histogram: high-intensity, unimodal distribution of signals
H596 [5]
  flow cytometry fluorescence histogram: minimal fluorescence
H446 [6]
  flow cytometry fluorescence histogram: minimal fluorescence
HT-29 [7]
  flow cytometry fluorescence histogram: high-intensity, unimodal distribution of signals
H596 [8]
  fluorescence signal from NI: minimal signal
A549 cells [9]
  average fluorescence signal compared to H596 cells: 13 fold
  average fluorescence signal versus H446 cells: 3.66×10^4 fold
HT-29 cell line
  cytosolic intensity compared to H446 cells: 4.51×10^4 fold
  cytosolic intensity compared to H596 cells: 15 fold
H446 [10]
  fluorescence signal from NI: minimal signal
[1]; Rehm-Weller equation
  ΔGPeT, energy change for the OeT process: −0.37 eV
[1]; voltammetric measurements
  EA, redox potential of the acceptor (quinone propionic acid group): −1.01 V
A549 [11]; after 1 h
  cell viability: 98.8%
A549 [11]; after 24 h
  cell viability: 98.7%
H596 [12]; after 1 h
  cell viability: 100%
H596 [12]; after 24 h
  cell viability: 98.4%
HT-29 [13]; after 1 h
  cell viability: 97.7%
HT-29 [13]; after 24 h
  cell viability: 97.7%
[3]; pH 7.4, 0.1 M PBS
  fluorescence quantum yield Φ: 0.007
H596 cells
  intracellular NI fluorescence signal: minimal signal
A549 cells [14]
  average cytosolic signal versus NQO1-negative H596 cells: 9 times
HT-29 cells
  average cytosolic signal versus NQO1-negative H596 cells: 23 times
A549 [15]
  appearance under 365 nm handheld lamp, unaided eye: fluorescent blue
H596 [16]
  appearance under 365 nm handheld lamp, unaided eye: no apparent emission
HT-29 [17]
  appearance under 365 nm handheld lamp, unaided eye: fluorescent blue
[18]; after 5 min, in vitro
  fluorescent signal as % of the maximum achievable: 22%
  released reporter: 220 nM
[18]; apparent, FIG. 7
  catalytic constant (kcat): 0.019 ± 0.001 s⁻¹
  maximum velocity (Vmax): 0.037±0.002 μmol min^−1 mg·NQO^−1
[18]; apparent, from time-dependent NI reporter production, FIG. 7, read-out: Michaelis constant (Km)
  Km: 3.86 ± 0.79 µM

## CC1(C)C(/C=C/C=C/C=C/C=C2\N(CCCCS(=O)(=O)O)c3ccc4ccccc4c3C2(C)C)=[N+](CCCCS(=O)(=O)[O-])c2ccc3ccccc3c21 [indocyanine green]
[19]
  fluorescence quantum yield Φ: 0.0028

Reference: patent US20160025711A1, “FLUORESCENT MARKERS AND METHODS FOR IMAGING DISEASES” (BOARD OF SUPERVISORS OF LOUISIANA STATE UNIVERSITY AND …, priority 2013, published 2016)
